Data reported in paper PMC11325505, “Nitrogen-Containing Flavonoids—Preparation and Biological Activity” (ACS Omega, 2024).
Values after ≈ are worked out from the molar mass of the structure shown. Values joined by “and” are separate entries in the source; they are usually repeats but may differ in a detail not shown here. Equal entries are not always repeated. Where two headings read alike, the source gives them in different places.

Legend:
[1] = tested on: Staphylococcus aureus MRSA 9; test: Modulation of antibiotic-resistant phenotype (flavonoid plus breakpoint concentration of antibiotic); format: cell-based; settings: for minimum inhibitory concentration (MIC) in the presence of erythromycin: erythromycin at breakpoint concentration 1 mg/L; for minimum inhibitory concentration (MIC) in the presence of erythromycin / minimum inhibitory concentration (MIC) in the presence of gentamicin: MIC determined as IC70, three repetitions ± SEM; for minimum inhibitory concentration (MIC) in the presence of gentamicin: gentamicin at breakpoint concentration 1 mg/L
Method: To evaluate the ability to modulate bacterial resistance, the tested flavonoids themselves cannot exert antimicrobial activity; therefore, the nontoxic concentration was used, as indicated in Table S5. Clinically relevant antibiotics were selected at breakpoint concentrations for susceptibility testing according to the European Committee on Antimicrobial Susceptibility Testing (EUCAST, version 11.0). […] Flavonoids and their derivatives (from 1 μM to the highest nontoxic concentration) were used in combination with the breakpoint concentration of the antibiotics. After coincubation, the minimum inhibitory concentration (MIC) of flavonoids inhibiting the visible growth of bacteria was determined (Table 2).
(§1) Sensitization of multidrug-resistant clinical bacterial strains was performed according to ref[15]. Antibiotic cutoff concentration was chosen according to the European Committee on Antimicrobial Susceptibility Testing (EUCAST, Clinical breakpoints–bacteria, ver. 11.0). The 200 μM concentration of the derivatives was chosen as the highest test concentration. The absorbance detected at 600 nm was then used to estimate the number of viable cells after 24 h of incubation at 37 °C and 120 rpm.
(§2) Experiments were performed with the respective number of replicates indicated in each figure/table. MIC was determined as IC70. Both IC70 and IC50 values were calculated using the following nonlinear regression in the software GraphPad Prism: […]

[2] = tested on: interleukin 6 (IL-6) production by RAW 264.7 stimulated by LPS; test: Anti-inflammatory activity: IL-6 production by LPS-stimulated macrophages; format: cell-based, Murine; settings: for IC50: Mus musculus, RAW264.7, LPS-stimulated RAW 264.7, average of four repetitions ± SEM; for ability to inhibit IL-6 production compared to luteolin, in words: LPS-stimulated macrophages
Method: The anti-inflammatory activity of flavonoids was evaluated as their ability to decrease the production of signaling molecules that mediate inflammation, such as nitric oxide (NO), tumor necrosis factor (TNF-α), and interleukin 6 (IL-6), in LPS-stimulated macrophages.
The anti-inflammatory activity of the tested flavonoids was determined as the ability to reduce the production of nitric oxide (NO), tumor necrosis factor (TNF-α), and interleukin 6 (IL-6) by RAW 264.7 stimulated by LPS, as previously described.[39],[40] Briefly, 1 × 10^6 cells/mL was seeded into the 96-well plate (100 μL/well). After 48 h, LPS (100 ng/mL) and the samples (3–100 μM) were added to the MEM medium. After 24 h, the medium was mixed with Griess reagent (0.04 g/mL) at a 1:1 ratio. The absorbance was measured after 15 min at 540 nm. Cell viability was determined using the resazurin assay.
To determine TNF-α levels, cells were precultivated with the tested compounds for 24 h. After 2 h of incubation with LPS, the medium was diluted 1:10 with ELISA diluent. To determine the level of IL-6, cells were cultivated for 6 h with LPS and the tested compounds. Cytokine production was determined using an uncoated ELISA performed according to the manufacturer’s instructions.

[3] = tested on: human dermal fibroblasts (HDF); test: Cytotoxicity (resazurin assay), fibroblasts; format: cell-based; settings: Homo sapiens, Fibroblast, 72 h, read-out: HDF IC50 (concentration that halved the viability)
Method: (§3) The cytotoxicity of the prepared derivatives was evaluated by their ability to decrease the viability of immortalized human keratinocytes (HaCaT) and human dermal fibroblasts (HDF).
(§4) 100 μL of cell suspension containing 10^5 cells/mL was pipetted into a 96-well plate. After 24 h incubation, the tested compounds were added in the concentration range 12.5–200 μM. After 72 h incubation, the cell viability was tested by standard resazurin assay.[41] Briefly, the cells were washed with PBS and incubated with 100 μL of resazurin solution (0.025 mg/mL) for 2 h. The fluorescence was measured at a wavelength of 560 nm excitation/590 nm emission.

S. aureus CCM 4223 = test: Antibacterial activity, antibiotic-sensitive strain; format: cell-based; settings: Staphylococcus aureus, CCM4223, three repetitions ± SEM
MRSA 3596 = test: Mode of antimicrobial action with erythromycin or gentamicin, ermA- and aadD-positive strain; format: cell-based, S. aureus; settings: for MIC, Gentamicin [1 mg/L] yes / MIC: MRSA 3596 (aadD); for MIC, Gentamicin [1 mg/L] yes: with gentamicin 1 mg/L; for MIC: Staphylococcus aureus, 24 h, read-out: MIC, Gentamicin [1 mg/L] no, without gentamicin, Table S6; for effect (mode of action with erythromycin) / FIC (Fractional Inhibitory Concentration Index) / effect (mode of action with gentamicin): MRSA 3596; for MIC, erythromycin [1 mg/L] yes / MIC, erythromycin [1 mg/L] no: MRSA 3596 (ermA); for MIC, erythromycin [1 mg/L] yes: with erythromycin 1 mg/L; for MIC, erythromycin [1 mg/L] no: without erythromycin, Table 4
Description: Erythromycin is a macrolide antibiotic that inhibits proteosynthesis by binding to the 50S subunit of the ribosome. In Staphylococcus species, resistance to erythromycin is associated with the presence of methyltransferases (encoded by erm genes) that alter the ribosomal target site. Another typical mechanism of resistance to erythromycin is the presence of an ATP-dependent efflux pump encoded by the msr(A) gene or a major facilitator superfamily (MFS) pump encoded by the lmrS gene. Both efflux pumps reduce the concentration of erythromycin in the cell below the therapeutic dose by transporting it across the membrane to the extracellular space. Another erythromycin resistance gene is the mph(C) gene, the product of which is a phosphotransferase that alters the structure of macrolide antibiotics. To elucidate the mechanism of erythromycin resistance modulation in S. aureus, further tests were performed with the strains MRSA 331 and MRSA 3596, which inactivate erythromycin via a single mechanism (ermC and ermA, respectively). […] Therefore, if the activity was not strain-specific, it would be necessary to consider the effect of the derivatives on this pump (Table 3).
Among the mechanisms of resistance to gentamicin previously described in S. aureus, the presence of enzymes that alter the structure of aminoglycosides is crucial. These enzymes can transfer nucleotides, phosphates, or acetyls to various −OH or −NH2 groups of gentamicin, preventing its subsequent interaction with the cellular target, i.e., the 30S ribosomal subunit. The bifunctional aminoglycoside-modifying enzyme with acetylation and phosphotransferase activities encoded by the gene aac(6’)/aph(2’), 4′,4″ adenyltransferase encoded by the aadD gene, and aminoglycoside O-phosphotransferase encoded by the gene aph(3′) are the most important.[37] […] For this reason, further testing continued using strains MRSA 3596 and MRSA 1584, which inactivate gentamicin only by a single mechanism (aadD and aac(6’)-aph(2’’), respectively).
as §1, §2

[4] = tested on: immortalized human keratinocytes (HaCaT); test: Cytotoxicity (resazurin assay), keratinocytes; format: cell-based; settings: Homo sapiens, HaCaT, 72 h, read-out: HaCaT IC50 (concentration that halved the viability)
Method: as §3, §4

[5] = 72 h incubation, resazurin, average of three repetitions ± SEM

SMILES	minimum inhibitory concentration (MIC) in the presence of erythromycin [1]	minimum inhibitory concentration (MIC) in the presence of gentamicin [1]	IC50 [2]	IC50 [3, 5]	IC50 (S. aureus CCM 4223)	MIC, Gentamicin [1 mg/L] yes (MRSA 3596)	MIC (MRSA 3596)	IC50 [4, 5]	IC50 [3]	effect (mode of action with erythromycin) (MRSA 3596)	MIC, erythromycin [1 mg/L] yes (MRSA 3596)	MIC, erythromycin [1 mg/L] no (MRSA 3596)	FIC (Fractional Inhibitory Concentration Index) (MRSA 3596; with erythromycin)	IC50 [4]	ability to inhibit IL-6 production compared to luteolin, in words [2]	effect (mode of action with gentamicin) (MRSA 3596)	FIC (Fractional Inhibitory Concentration Index) (MRSA 3596; with gentamicin)	effect (mode of action with erythromycin) (MRSA 3596; listed as luteolin)	inhibition at 200 µM ([1]; Staphylococcus aureus, MRSA, with gentamicin 1 mg/L, maximum concentration used (200 μM), read-out: maximum concentration used inhibited bacterial growth to)	effect (mode of action with erythromycin) (MRSA 3596; listed as quercetin)
O=c1c(O)c(-c2ccc(O)c(O)c2)oc2c(Nc3ccc(F)cc3)c(O)cc(O)c12 [compound 5, 2-(3,4-Dihydroxyphenyl)-8-(4-fluoroanilino)-3,5,7-trihydroxy-4H–1-benzopyran-4-one]	>200 µM	45.2 ± 0.6 µM	14.6 ± 0.8 µM	95.9 ± 6.1 µM	28 ± 0.1 µM	> 200 µM	> 200 µM	37.6 ± 3.4 µM	–	–	–	–	–	–	–	–	–	–	–	–
O=c1cc(-c2ccc(O)c(O)c2)oc2c(Nc3ccc(C(F)(F)F)cc3)c(O)cc(O)c12 [compound 14, 2-(3,4-Dihydroxyphenyl)-8-(4-(trifluoromethyl)anilino)-5,7-dihydroxy-4H–1-benzopyran-4-one]	>15 ^note 5 μM	–	12.4 ± 0.4 µM	–	15.3 ± 0.7 µM	> 200 µM	> 200 µM	–	29.9 ± 1.1 µM	antagonism (≥2 indicates antagonism)	29.9 ± 1.4 µM (≈ 13.3 µg/mL)	14.4 ± 0.1 µM (≈ 6.41 µg/mL)	2.07 ± 0.11	26.8 ± 1.6 µM	–	–	–	–	–	–
O=c1cc(-c2ccc(O)c(O)c2)oc2c(Nc3ccccc3)c(O)cc(O)c12 [compound 13, 2-(3,4-Dihydroxyphenyl)-8-(anilino)-5,7-dihydroxy-4H–1-benzopyran-4-one]	>200 µM	24.7 ± 0.8 µM	7.3 ± 0.6 µM	58.3 ± 2.7 µM	50 ± 1.2 µM	23.2 ± 0.4 µM (≈ 8.75 µg/mL)	93 ± 0.6 µM (≈ 35.1 µg/mL)	41.4 ± 3.7 µM	–	–	–	–	–	–	same ability to inhibit IL-6 production as luteolin	synergy (Fractional Inhibitory Concentration Index (FIC) < 0.5 indicates synergism)	0.25 ± 0.01	–	–	–
O=c1cc(-c2ccc(O)c(O)c2)oc2cc(O)cc(O)c12 [compound 10, luteolin, reference compound]	147.3 ± 7.7 µM	84.7 ± 1.8 µM	7.3 ± 0.2 µM	–	> 200 µM	6.7 ± 0.1 µM (≈ 1.92 µg/mL)	51.1 ± 1.3 µM (≈ 14.6 µg/mL)	–	42.9 ± 3.4 µM	synergy (Fractional Inhibitory Concentration Index (FIC) < 0.5 indicates synergism)	14.3 ± 0.9 µM (≈ 4.09 µg/mL)	51.1 ± 1.3 µM (≈ 14.6 µg/mL)	0.28 ± 0.02	34.7 ± 1 µM	–	synergy (Fractional Inhibitory Concentration Index (FIC) < 0.5 indicates synergism)	0.13 ± 0.01	synergistic activity	–	–
O=c1c(O)c(-c2ccc(O)c(O)c2)oc2c(Nc3ccc(C(F)(F)F)cc3)c(O)cc(O)c12 [compound 8, 2-(3,4-Dihydroxyphenyl)-8-(4-(trifluoromethyl)anilino)-3,5,7-trihydroxy-4H–1-benzopyran-4-one]	>25 ^note 3 μM	8.1 µM and 8.1 ± 0.6 µM	35.1 ± 1.6 µM	–	39.3 ± 1.8 µM	5.7 ± 0.1 µM (≈ 2.63 µg/mL)	37.9 ± 0.1 µM (≈ 17.5 µg/mL)	–	111.9 ± 0.5 µM	synergy (Fractional Inhibitory Concentration Index (FIC) < 0.5 indicates synergism)	8.4 ± 1.1 µM (≈ 3.88 µg/mL)	37.9 ± 0.1 µM (≈ 17.5 µg/mL)	–	117.1 ± 0.1 µM	–	synergy (Fractional Inhibitory Concentration Index (FIC) < 0.5 indicates synergism)	–	–	–	–
O=c1cc(-c2ccc(O)c(O)c2)oc2c(Nc3cccc(F)c3)c(O)cc(O)c12 [compound 15, 2-(3,4-Dihydroxyphenyl)-8-(3-fluoroanilino)-5,7-dihydroxy-4H–1-benzopyran-4-one]	>200 µM	12.4 ± 0.3 µM	8 ± 0.6 µM	30.9 ± 2.1 µM	28 ± 2.2 µM	5.3 ± 0.1 µM (≈ 2.1 µg/mL)	25.7 ± 0.4 µM (≈ 10.2 µg/mL)	26 ± 5.8 µM	–	–	–	–	–	–	same ability to inhibit IL-6 production as luteolin	synergy (Fractional Inhibitory Concentration Index (FIC) < 0.5 indicates synergism)	0.21 ± 0.1	–	–	–
O=c1c(O)c(-c2ccc(O)c(O)c2)oc2cc(O)cc(O)c12 [compound 4, quercetin, reference compound]	117.3 ± 4.7 µM	>200 ^note 1 μM	4.7 ± 0.2 µM	–	> 200 µM	54.5 ± 0.6 µM (≈ 16.5 µg/mL)	178 ± 2.7 µM (≈ 53.8 µg/mL)	–	80 ± 1.5 µM	synergy (Fractional Inhibitory Concentration Index (FIC) < 0.5 indicates synergism)	58.6 ± 1.2 µM (≈ 17.7 µg/mL)	178.1 ± 2.7 µM (≈ 53.8 µg/mL)	0.33 ± 0.01	127 ± 3.4 µM	–	synergy (Fractional Inhibitory Concentration Index (FIC) < 0.5 indicates synergism)	0.31 ± 0.01	–	57%	synergistic activity
